Measurements taken from US11834467B2, “Substituted indazoles as hematopoietic progenitor kinase 1 (HPK1) inhibitors” (1ST Biotherapeutics, Inc., priority 2020, dated 2023).
pEC50: −log10 of the molar value. Read-outs that look alike come from different tables or passages of the source.

Tested on: human peripheral blood pan T cells
Test: IFNγ and IL-2 secretion analysis of human peripheral pan T cells
Format: cell-based
Conditions: CD3/CD28 stimulation, 100 nM Prostaglandin E2, 24 hr
Experimental: Human peripheral blood pan T cells were purchased from STEMCELL™ Technologies Inc. Human peripheral blood pan T cells were thawed and suspended in DMEM media (10% FBS and 100 Penicillin/Streptomycin). 8×10^4 T cells were seeded in 96-well plate and incubated with various concentration of compounds and 100 nM Prostaglandin E2 for 1 hr. T cells were stimulated with Dynabeads Human T-Activator CD3/CD28 (Life Technologies) at a 1:3 cells:beads ratio. […] Data were analyzed with an MESO Quickplex SQ120 (Mesoscale Discovery).

[1] = Homo sapiens, T-cell, 24 h, IFNγ secretion, read-out: IFNγ (EC50)
[2] = Homo sapiens, T-cell, 24 h, IL-2 secretion, read-out: IL-2 (EC50)

SMILES	pEC50 [1]	pEC50 [2]	pEC50 (IFNγ secretion, read-out: IFNγ (EC50))
CSc1c(F)c(Cl)c(-c2cn3cc(NC(=O)[C@@H]4C[C@@H]4F)nc3cn2)c2cn[nH]c12 [Example 38]	6.00 to 6.70	6.00 to 6.70	> 6.70
CN(C)c1c(F)c(C(F)(F)F)c(-c2cn3cc(NC(=O)[C@@H]4C[C@@H]4F)nc3cn2)c2cn[nH]c12 [Example 40]	> 6.70	6.00 to 6.70	–
CCc1c(F)cc2[nH]ncc2c1-c1ccc2nc(NC(=O)[C@@H]3C[C@@H]3F)cn2n1 [Example 4]	> 6.70	6.00 to 6.70	–
CCOc1c(F)c(CC)c(-c2cn3cc(NC(=O)[C@@H]4C[C@@H]4F)nc3cn2)c2cn[nH]c12 [Example 44]	> 6.70	6.00 to 6.70	–
CCc1c(F)c(N(C)C)c2[nH]ncc2c1-c1cn2cc(NC(=O)[C@@H]3C[C@@H]3F)nc2cn1 [Example 26]	> 6.70	6.00 to 6.70	–
CC(C)N(C)c1c(F)c(Cl)c(-c2cn3cc(NC(=O)[C@@H]4C[C@@H]4F)nc3cn2)c2cn[nH]c12 [Example 62]	> 6.70	6.00 to 6.70	–
CC(C)Nc1c(F)c(Cl)c(-c2cn3cc(NC(=O)[C@@H]4C[C@@H]4F)nc3cn2)c2cn[nH]c12 [Example 61, (1S,2S)—N-(6-(5-chloro-6-fluoro-7-(isopropylamino)-1H-indazol-4-yl)imidazo[1,2-a]pyrazin-2-yl)-2-fluorocyclopropane-1-carboxamide]	> 6.70	6.00 to 6.70	–
CCOc1c(F)c(CC)c(-c2ccc3nc(NC(=O)[C@@H]4C[C@@H]4F)cn3n2)c2cn[nH]c12 [Example 13]	6.00 to 6.70	6.00 to 6.70	–
CCN(C)c1c(F)c(Cl)c(-c2cn3cc(NC(=O)[C@@H]4C[C@@H]4F)nc3cn2)c2cn[nH]c12 [Example 41]	> 6.70	6.00 to 6.70	–
CCc1c(F)c(N(C)C)c2[nH]ncc2c1-c1ccc2nc(NC(=O)[C@@H]3C[C@@H]3F)cn2n1 [Example 7]	6.00 to 6.70	6.00 to 6.70	–
CN(C)c1c(F)c(Cl)c(-c2cn3cc(NC(=O)[C@@H]4C[C@@H]4F)nc3cn2)c2cn[nH]c12 [Example 33]	> 6.70	6.00 to 6.70	–
CN(c1c(F)c(Cl)c(-c2cn3cc(NC(=O)[C@@H]4C[C@@H]4F)nc3cn2)c2cn[nH]c12)C1CC1 [Example 58]	> 6.70	6.00 to 6.70	–
CCN(C)c1c(F)c(C(F)(F)F)c(-c2cn3cc(NC(=O)[C@@H]4C[C@@H]4F)nc3cn2)c2cn[nH]c12 [Example 42]	> 6.70	6.00 to 6.70	–
CC(C)c1c(F)c(Cl)c(-c2cn3cc(NC(=O)[C@@H]4C[C@@H]4F)nc3cn2)c2cn[nH]c12 [Example 64, (1S,2S)—N-(6-(5-chloro-6-fluoro-7-isopropyl-1H-indazol-4-yl)imidazo[1,2-a]pyrazin-2-yl)-2-fluorocyclopropane-1-carboxamide]	> 6.70	> 6.70	–
CCOc1c(F)c(Cl)c(-c2cn3cc(NC(=O)[C@@H]4C[C@@H]4F)nc3cn2)c2cn[nH]c12 [Example 34]	> 6.70	6.00 to 6.70	–
CSc1c(F)c(SC)c2[nH]ncc2c1-c1cn2cc(NC(=O)[C@@H]3C[C@@H]3F)nc2cn1 [Example 27]	> 6.70	–	–
